Patent publication US20260258035A1, “FIVE-MEMBERED AND SIX-MEMBERED NITROGEN-CONTAINING COMPOUND, AND INTERMEDIATE, PREPARATION METHOD AND USE THEREOF” (HANGZHOU SYNRX THERAPEUTICS BIOMEDICAL TECHNOLOGY CO., LTD., priority 2022, published 2026)

Assays:
PARG = PARG (Homo sapiens, UniProt Q86W56); assay: Biochemical assay (PARG, TFMU-ADPr substrate); details: PARG, TFMU-ADPr substrate
HCC1806 = assay: Cell viability assay (CellTiter-Glo); type: cell-based, Human; details: Homo sapiens, HCC1806, 168 h, HCC1806, 7 days, CellTiter-Glo; read-out: IC50 (nM) in cell viability assay

Sequence of PARG (Q86W56 whole entry): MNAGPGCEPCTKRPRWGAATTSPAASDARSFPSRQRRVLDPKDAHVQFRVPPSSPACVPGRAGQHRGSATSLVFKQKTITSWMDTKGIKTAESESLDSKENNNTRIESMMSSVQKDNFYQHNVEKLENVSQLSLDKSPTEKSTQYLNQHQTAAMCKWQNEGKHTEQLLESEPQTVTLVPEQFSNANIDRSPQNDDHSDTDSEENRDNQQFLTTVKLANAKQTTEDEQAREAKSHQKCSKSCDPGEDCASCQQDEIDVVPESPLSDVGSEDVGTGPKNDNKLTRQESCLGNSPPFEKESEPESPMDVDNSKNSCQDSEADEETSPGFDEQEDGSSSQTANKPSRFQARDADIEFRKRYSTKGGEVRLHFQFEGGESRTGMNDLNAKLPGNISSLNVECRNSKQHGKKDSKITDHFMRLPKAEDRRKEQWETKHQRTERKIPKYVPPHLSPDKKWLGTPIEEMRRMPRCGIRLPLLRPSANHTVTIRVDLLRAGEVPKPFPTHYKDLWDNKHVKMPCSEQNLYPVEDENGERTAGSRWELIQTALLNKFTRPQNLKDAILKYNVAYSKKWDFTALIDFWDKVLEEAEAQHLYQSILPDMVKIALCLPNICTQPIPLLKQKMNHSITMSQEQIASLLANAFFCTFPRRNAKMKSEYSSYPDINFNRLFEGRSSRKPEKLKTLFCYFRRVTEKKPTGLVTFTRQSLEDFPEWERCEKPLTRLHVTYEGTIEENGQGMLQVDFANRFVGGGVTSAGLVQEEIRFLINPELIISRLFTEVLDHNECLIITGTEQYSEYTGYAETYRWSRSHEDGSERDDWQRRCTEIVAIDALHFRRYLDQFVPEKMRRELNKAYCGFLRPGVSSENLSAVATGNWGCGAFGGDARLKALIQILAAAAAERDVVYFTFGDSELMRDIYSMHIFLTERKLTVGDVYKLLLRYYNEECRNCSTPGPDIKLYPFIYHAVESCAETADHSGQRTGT

Compound	IC50 (PARG)	IC50 (HCC1806)
CC1(NS(=O)(=O)c2cc(N3CCC(O)CC3)c3cnc(-c4nnc(C(F)F)s4)n3c2)CC1 [Example 305, 3-(5-(difluoromethyl)-1,3,4-thiadiazol-2-yl)-8-(4-hydroxypiperidin-1-yl)-N-(1-methylcyclopropyl)imidazo[1,5-a]pyridine-6-sulfonamide]	6.91 nM	130 nM
C[C@@H]1CN(c2cc(S(=O)(=O)NC3(C)CC3)cn3c(-c4nnc(C(F)(F)F)s4)ncc23)CCN1C(=O)[C@H]1CCN1C [Example 306, 8-((R)-3-methyl-4-((R)-1-methylazetidine-2-carbonyl)piperazin-1-yl)-N-(1-methylcyclopropyl)-3-(5-(trifluoromethyl)-1,3,4-thiadiazol-2-yl)imidazo[1,5-a]pyridine-6-sulfonamide]	6.11 nM	89 nM
CC1(NS(=O)(=O)c2cc(N3CCN(C(=O)c4ccc5c(c4)OCO5)CC3)c3cnc(-c4nnc(C(F)(F)F)s4)n3c2)CC1 [Example 307, 8-(4-(benzo[d][1,3]dioxole-5-carbonyl)piperazin-1-yl)-N-(1-methylcyclopropyl)-3-(5-(trifluoromethyl)-1,3,4-thiadiazol-2-yl)imidazo[1,5-a]pyridine-6-sulfonamide]	4.13 nM	540 nM
CN(C)C(=O)N1CCN(c2cc(S(=O)(=O)NC3(C)CC3)cn3c(-c4nnc(C(F)F)s4)ncc23)CC1 [Example 308, 4-(3-(5-(difluoromethyl)-1,3,4-thiadiazol-2-yl)-6-(N-(1-methylcyclopropyl)sulfamoyl)imidazo[1,5-a]pyridin-8-yl)-N,N-dimethylpiperazine-1-carboxamide]	0.73 nM	104 nM
COC1(C(=O)N2CCN(c3cc(S(=O)(=O)NC4(C)CC4)cn4c(-c5nnc(C(F)F)s5)ncc34)CC2)CN(C)C1 [Example 310, 3-(5-(difluoromethyl)-1,3,4-thiadiazol-2-yl)-8-(4-(3-methoxy-1-methylazetidine-3-carbonyl)piperazin-1-yl)-N-(1-methylcyclopropyl)imidazo[1,5-a]pyridine-6-sulfonamide]	< 0.1 nM	38 nM
COC1(C(=O)N2CCN(c3cc(S(=O)(=O)NC4(C)CC4)cn4c(-c5nnc(C(F)F)s5)ncc34)CC2)CN(CCF)C1 [Example 312, 3-(5-(difluoromethyl)-1,3,4-thiadiazol-2-yl)-8-(4-(1-(2-fluoroethyl)-3-methoxyazetidine-3-carbonyl)piperazin-1-yl)-N-(1-methylcyclopropyl)imidazo[1,5-a]pyridine-6-sulfonamide]	< 0.1 nM	6.02 nM
CC1(NS(=O)(=O)c2cc(N3CCN(C(=O)C4(C)CNC4)CC3)c3cnc(-c4nnc(C(F)(F)F)s4)n3c2)CC1 [Example 313, 8-(4-(3-methylazetidine-3-carbonyl)piperazin-1-yl)-N-(1-methylcyclopropyl)-3-(5-(trifluoromethyl)-1,3,4-thiadiazol-2-yl)imidazo[1,5-a]pyridine-6-sulfonamide]	1.64 nM	2050 nM
C[C@@H]1CN(c2cc(S(=O)(=O)NC3(C)CC3)cn3c(-c4nnc(C(F)F)s4)ncc23)CCN1C(=O)C1CNC1 [Example 315, (R)-8-(4-(azetidine-3-carbonyl)-3-methylpiperazin-1-yl)-3-(5-(difluoromethyl)-1,3,4-thiadiazol-2-yl)-N-(1-methylcyclopropyl)imidazo[1,5-a]pyridine-6-sulfonamide]	0.96 nM	5700 nM
CC1(NS(=O)(=O)c2cc(N3CCN(C(=O)C4(F)CNC4)CC3)c3cnc(-c4nnc(C(F)(F)F)s4)n3c2)CC1 [Example 317, 8-(4-(3-fluoroazetidine-3-carbonyl)piperazin-1-yl)-N-(1-methylcyclopropyl)-3-(5-(trifluoromethyl)-1,3,4-thiadiazol-2-yl)imidazo[1,5-a]pyridine-6-sulfonamide]	3.54 nM	1140 nM
CNC1(C(=O)N2CCN(c3cc(S(=O)(=O)NC4(C)CC4)cn4c(-c5nnc(C(F)(F)F)s5)ncc34)CC2)CC1 [Example 318, 8-(4-(1-(methylamino)cyclopropane-1-carbonyl)piperazin-1-yl)-N-(1-methylcyclopropyl)-3-(5-(trifluoromethyl)-1,3,4-thiadiazol-2-yl)imidazo[1,5-a]pyridine-6-sulfonamide]	1.84 nM	363 nM
CC1(NS(=O)(=O)c2cc(N3CCN(C(=O)C4(C)CCN4)CC3)c3cnc(-c4nnc(C(F)(F)F)s4)n3c2)CC1 (stereo not shown) [Example 321, 8-(4-(2-methylazetidine-2-carbonyl)piperazin-1-yl)-N-(1-methylcyclopropyl)-3-(5-(trifluoromethyl)-1,3,4-thiadiazol-2-yl)imidazo[1,5-a]pyridine-6-sulfonamide]	2.93 nM	175 nM
CC1(NS(=O)(=O)c2cc(N3CCN(C(=O)[C@H]4C[C@H](F)CN4)CC3)c3cnc(-c4nnc(C(F)(F)F)s4)n3c2)CC1 [Example 323, 8-(4-((2R,4S)-4-fluoropyrrolidine-2-carbonyl)piperazin-1-yl)-N-(1-methylcyclopropyl)-3-(5-(trifluoromethyl)-1,3,4-thiadiazol-2-yl)imidazo[1,5-a]pyridine-6-sulfonamide]	5.41 nM	181 nM
COC1(C(=O)N2CCN(c3cc(S(=O)(=O)NC4(C)CC4)cn4c(-c5nnc(C(F)(F)F)s5)ncc34)CC2)CCC1 [Example 327, 8-(4-(1-methoxycyclobutane-1-carbonyl)piperazin-1-yl)-N-(1-methylcyclopropyl)-3-(5-(trifluoromethyl)-1,3,4-thiadiazol-2-yl)imidazo[1,5-a]pyridine-6-sulfonamide]	0.15 nM	6.13 nM
COC(C)C(=O)N1CCN(c2cc(S(=O)(=O)NC3(C)CC3)cn3c(-c4nnc(C(F)(F)F)s4)ncc23)CC1 (stereo not shown) [Example 328, 8-(4-(2-methoxypropanoyl)piperazin-1-yl)-N-(1-methylcyclopropyl)-3-(5-(trifluoromethyl)-1,3,4-thiadiazol-2-yl)imidazo[1,5-a]pyridine-6-sulfonamide]	1.21 nM	55.6 nM

The remaining lines, values ahead:

IC50 (PARG)	IC50 (HCC1806)	Compound
3.86 nM	70 nM	CC1(NS(=O)(=O)c2cc(N3CCN(C(=O)C4CCO4)CC3)c3cnc(-c4nnc(C(F)(F)F)s4)n3c2)CC1 (stereo not shown) [Example 304, N-(1-methylcyclopropyl)-8-(4-(oxetane-2-carbonyl)piperazin-1-yl)-3-(5-(trifluoromethyl)-1,3,4-thiadiazol-2-yl)imidazo[1,5-a]pyridine-6-sulfonamide]
1.03 nM	570 nM	CN1CC[C@@H]1C(=O)N1CCN(c2cc(S(=O)(=O)NC3(C)CC3)cn3c(-c4nnc(C(F)F)s4)ncc23)CC1 [Example 309, (R)-3-(5-(difluoromethyl)-1,3,4-thiadiazol-2-yl)-8-(4-(1-methylazetidine-2-carbonyl)piperazin-1-yl)-N-(1-methylcyclopropyl)imidazo[1,5-a]pyridine-6-sulfonamide]
0.68 nM	241 nM	CN1CC(C)(C(=O)N2CCN(c3cc(S(=O)(=O)NC4(C)CC4)cn4c(-c5nnc(C(F)(F)F)s5)ncc34)CC2)C1 [Example 314, 8-(4-(1,3-dimethylazetidine-3-carbonyl)piperazin-1-yl)-N-(1-methylcyclopropyl)-3-(5-(trifluoromethyl)-1,3,4-thiadiazol-2-yl)imidazo[1,5-a]pyridine-6-sulfonamide]
4.46 nM	918 nM	CC1(NS(=O)(=O)c2cc(N3CCN(C(=O)[C@@H]4CCCN4)CC3)c3cnc(-c4nnc(C(F)(F)F)s4)n3c2)CC1 [Example 316, (S)-N-(1-methylcyclopropyl)-8-(4-prolylpiperazin-1-yl)-3-(5-(trifluoromethyl)-1,3,4-thiadiazol-2-yl)imidazo[1,5-a]pyridine-6-sulfonamide]
5.62 nM	147 nM	CC1(NS(=O)(=O)c2cc(N3CCN(C(=O)[C@H]4CCN4CCCF)CC3)c3cnc(-c4nnc(C(F)(F)F)s4)n3c2)CC1 [Example 319, (R)-8-(4-(1-(3-fluoropropyl)azetidine-2-carbonyl)piperazin-1-yl)-N-(1-methylcyclopropyl)-3-(5-(trifluoromethyl)-1,3,4-thiadiazol-2-yl)imidazo[1,5-a]pyridine-6-sulfonamide]
2.71 nM	93.9 nM	CC1(NS(=O)(=O)c2cc(N3CCN(C(=O)[C@H]4CCN4CCF)CC3)c3cnc(-c4nnc(C(F)(F)F)s4)n3c2)CC1 [Example 320, (R)-8-(4-(1-(2-fluoroethyl)azetidine-2-carbonyl)piperazin-1-yl)-N-(1-methylcyclopropyl)-3-(5-(trifluoromethyl)-1,3,4-thiadiazol-2-yl)imidazo[1,5-a]pyridine-6-sulfonamide]
16.5 nM	334 nM	CN1CC(F)(C(=O)N2CCN(c3cc(S(=O)(=O)NC4(C)CC4)cn4c(-c5nnc(C(F)(F)F)s5)ncc34)CC2)C1 [Example 322, 8-(4-(3-fluoro-1-methylazetidine-3-carbonyl)piperazin-1-yl)-N-(1-methylcyclopropyl)-3-(5-(trifluoromethyl)-1,3,4-thiadiazol-2-yl)imidazo[1,5-a]pyridine-6-sulfonamide]
4.46 nM	120 nM	CN1CCC[C@@H]1C(=O)N1CCN(c2cc(S(=O)(=O)NC3(C)CC3)cn3c(-c4nnc(C(F)(F)F)s4)ncc23)CC1 [Example 325, 8-(4-(methyl-D-prolyl)piperazin-1-yl)-N-(1-methylcyclopropyl)-3-(5-(trifluoromethyl)-1,3,4-thiadiazol-2-yl)imidazo[1,5-a]pyridine-6-sulfonamide]
4.82 nM	257 nM	CC1(NS(=O)(=O)c2cc(N3CCN(C(=O)C4NCCS4)CC3)c3cnc(-c4nnc(C(F)(F)F)s4)n3c2)CC1 (stereo not shown) [Example 326, N-(1-methylcyclopropyl)-8-(4-(thiazolidine-2-carbonyl)piperazin-1-yl)-3-(5-(trifluoromethyl)-1,3,4-thiadiazol-2-yl)imidazo[1,5-a]pyridine-6-sulfonamide]
